13 molecules from ChEMBL document CHEMBL1201862, “PubChem BioAssay data set” (2004) can be followed below.

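These data come from cells grown in 96-well plates and exposed to compound for 48 hours at five concentrations. Abbreviation: GI50, concentration required for 50% inhibition of growth.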 Activity calls are given as the source filed them. Cut-off read from the data, not from the text of the source: active = GI50 up to about 1.1 µM and inactive = higher. Where only a bound is given, the exact number is not on record here.

Among the test systems are A549; NCI-H460; SF-539; LOX IMVI; EKVX; SW-620; TK-10; SK-OV-3; MOLT-4; SNB-75; UACC-62; RPMI-8226; MDA-N; COLO 205; SN12C; SF-295; HCC 2998; SF-268; Malme-3M.
Holding throughout (assay): NCI anticancer screen, dose series, 48 h

Turning to `O=c1n(CCCN2CCN(c3cccc(Cl)c3)CC2)nc2n1-c1ccc3ccccc3c1SC2`, the GI50 with A549 was > 100 µM (inactive); in the assay with NCI-H460, > 100 µM (inactive); with SF-539, > 100 µM (inactive); with LOX IMVI, > 100 µM (inactive); in the assay on EKVX, 99.3 µM (inactive); with SW-620 it was > 100 µM (inactive). The GI50 with TK-10 is > 100 µM (inactive); in the assay on SK-OV-3, > 100 µM (inactive); in the assay with MOLT-4, 7.93 µM (inactive); in the assay with SNB-75, > 100 µM (inactive); with UACC-62 it was > 100 µM (inactive); with RPMI-8226, 58.9 µM (inactive). Moreover, the GI50 in the assay with MDA-N was > 100 µM (inactive); with COLO 205, 4.4 µM (inactive); with SN12C, > 100 µM (inactive); in the assay with SF-295, > 100 µM (inactive).

With `Cc1oc2nc(N(C)C)nc(Cl)c2c1C`, the GI50 with A549 is > 100 µM (inactive); in the assay with HCC 2998, > 100 µM (inactive); in the assay with NCI-H460 it was > 100 µM (inactive); in the assay with SF-539 it was > 100 µM (inactive); with EKVX, 34.8 µM (inactive); in the assay on SW-620 it was > 100 µM (inactive). The GI50 was > 100 µM (inactive) in the assay on TK-10; > 100 µM (inactive) in the assay with MOLT-4; 3.89 µM (inactive) in the assay on SNB-75; > 100 µM (inactive) with UACC-62; > 100 µM (inactive) with SF-268; > 100 µM (inactive) in the assay with RPMI-8226. For the same molecule, the GI50 with COLO 205, in the assay on SN12C and in the assay with SF-295 was > 100 µM (inactive) each time.

For the molecule `O=C1CCCCC(=O)Nc2ccccc2N1`, the GI50 in the assay with A549, in the assay on NCI-H460, with SF-539, in the assay on LOX IMVI, with EKVX and with SW-620 was > 100 µM (inactive) each time. The GI50 in the assay on TK-10, in the assay with SK-OV-3, in the assay with MOLT-4, in the assay on UACC-62, in the assay on SF-268 and in the assay on RPMI-8226 was > 100 µM (inactive) each time. The GI50 with MDA-N, with COLO 205, with SN12C, in the assay on Malme-3M and in the assay on SF-295 was > 100 µM (inactive) throughout.

As for `COc1ccc(O)c(/C=N/CCC/N=C/c2cc(OC)ccc2O)c1`, the GI50 was 70.8 µM (inactive) in the assay with A549; 41.4 µM (inactive) with NCI-H460; 20.2 µM (inactive) in the assay with EKVX; 39 µM (inactive) in the assay with SW-620; 34.9 µM (inactive) with TK-10; 16.6 µM (inactive) in the assay on MOLT-4. Further, the GI50 in the assay on SNB-75 was 18.3 µM (inactive); in the assay with UACC-62 it was 33.1 µM (inactive); in the assay with RPMI-8226, 11.7 µM (inactive); in the assay with MDA-N it was 31.3 µM (inactive); in the assay with SN12C it was 30 µM (inactive); with Malme-3M it was 13.7 µM (inactive). For the same molecule, in the assay on SF-295, the GI50 is 18.1 µM (inactive).

Turning to `OC[C@@H]1CC#C/C=C\C#CC[C@@H]1CO`, the GI50 in the assay with HCC 2998, in the assay on SF-539, in the assay on EKVX, in the assay on TK-10, with SK-OV-3 and in the assay on MOLT-4 was > 100 µM (inactive) throughout. The GI50 in the assay with SF-268 is < 0.01 µM (active); in the assay on RPMI-8226, > 100 µM (inactive); in the assay on COLO 205 it was > 100 µM (inactive); in the assay on Malme-3M it was > 100 µM (inactive); in the assay on SF-295, > 100 µM (inactive).

On to `COc1ccc(C2N(c3ccc(F)cc3)C(=O)N3C(c4ccc(OC)cc4)N(c4ccc(F)cc4)C(=O)N23)cc1` (centres undefined), for which the GI50 in the assay on A549, in the assay with NCI-H460, with SF-539, with LOX IMVI, with EKVX and with SW-620 was > 100 µM (inactive) each time. In addition, the GI50 in the assay on TK-10, in the assay on SNB-75, with UACC-62, in the assay on SF-268, in the assay on RPMI-8226 and in the assay with MDA-N was > 100 µM (inactive) each time. Further, the GI50 with COLO 205, with SN12C, in the assay on Malme-3M and with SF-295 was > 100 µM (inactive) each time.

Turning to `Cc1[nH]c2ccccc2c1CC/C(=N\Nc1ccccc1)c1ccccc1`, the GI50 in the assay on A549, with HCC 2998, in the assay with NCI-H460, in the assay on SF-539, with EKVX and in the assay with SW-620 was > 100 µM (inactive) in each case. The GI50 is > 100 µM (inactive) in the assay on TK-10; > 100 µM (inactive) in the assay with SK-OV-3; > 100 µM (inactive) in the assay on MOLT-4; 28.7 µM (inactive) in the assay on SNB-75; > 100 µM (inactive) in the assay with UACC-62; > 100 µM (inactive) with RPMI-8226. Further, the results for the GI50 with Malme-3M and in the assay with SF-295 were > 100 µM (inactive) and 94.6 µM (inactive), respectively.

Regarding `CC(C)(C)OC(=O)N(CCCCNCc1ccc2ccccc2c1)CCCNCc1ccc2ccccc2c1`, the GI50 in the assay with A549 was 1.81 µM (inactive); in the assay on HCC 2998, 0.254 µM (active); in the assay on NCI-H460, 0.736 µM (active); in the assay with SF-539, 1.44 µM (inactive); with EKVX, 1.56 µM (inactive); in the assay with SW-620, 1.75 µM (inactive). Moreover, the GI50 in the assay with TK-10 was 1.66 µM (inactive); in the assay with SK-OV-3, 1.94 µM (inactive); in the assay on MOLT-4, 0.708 µM (active); in the assay on SNB-75 it was 1.52 µM (inactive); in the assay on UACC-62, 1.66 µM (inactive); in the assay with SF-268, 1.77 µM (inactive). Further, the GI50 is 1.08 µM (active) with RPMI-8226, 1.17 µM (inactive) with COLO 205, 1.75 µM (inactive) in the assay on SN12C and 1.9 µM (inactive) in the assay with SF-295.

In the case of `COc1cc2c(cc1OC)C(Cc1ccccc1CCCl)=NCC2`, the GI50 in the assay with A549 is 57.9 µM (inactive); in the assay on HCC 2998, 24.2 µM (inactive); in the assay on NCI-H460, 21.9 µM (inactive); in the assay with SF-539, 21.2 µM (inactive); with EKVX, > 100 µM (inactive); in the assay on SW-620, 42 µM (inactive). In addition, the GI50 in the assay on TK-10 is > 100 µM (inactive); in the assay on SK-OV-3, > 100 µM (inactive); in the assay on MOLT-4, 38.6 µM (inactive); in the assay with SNB-75 it was 30.3 µM (inactive); with UACC-62 it was 34.2 µM (inactive); with SF-268, 53 µM (inactive). For the same molecule, the GI50 with RPMI-8226 was 24.2 µM (inactive); with COLO 205, 26.6 µM (inactive); in the assay with SN12C, > 100 µM (inactive); in the assay on SF-295, 33.7 µM (inactive).

Regarding `COc1ccc(/C=C(\C#N)c2nc(N)nc(N3N=C(C)CC3(C)C)n2)c(O)c1`, the GI50 with A549 was 18.8 µM (inactive); in the assay on HCC 2998, 19.2 µM (inactive); in the assay on NCI-H460, 17.3 µM (inactive); in the assay on SF-539 it was 15.7 µM (inactive); in the assay with EKVX, 20.5 µM (inactive); in the assay on TK-10, 30.2 µM (inactive). Moreover, the GI50 was 26.9 µM (inactive) in the assay with SK-OV-3; 13.1 µM (inactive) in the assay with MOLT-4; 17.4 µM (inactive) in the assay on UACC-62; 17.2 µM (inactive) in the assay on SF-268; 41.3 µM (inactive) in the assay on RPMI-8226; 17 µM (inactive) in the assay with COLO 205. The GI50 with SN12C is 26.8 µM (inactive); in the assay on Malme-3M it was 14.4 µM (inactive); in the assay on SF-295 it was 19.1 µM (inactive).

Regarding `O=[N+]([O-])c1cccc(-c2cn3c(n2)Cc2ccccc2C3)c1`, the GI50 in the assay on A549 was 64.1 µM (inactive); in the assay on NCI-H460, 85.7 µM (inactive); in the assay on SF-539, 57.4 µM (inactive); with LOX IMVI, 39.8 µM (inactive); with EKVX, 90.2 µM (inactive); with SW-620, > 100 µM (inactive). The GI50 in the assay on TK-10 was > 100 µM (inactive); in the assay with SK-OV-3, > 100 µM (inactive); in the assay on MOLT-4 it was 9.68 µM (inactive); with SNB-75 it was > 100 µM (inactive); in the assay on UACC-62 it was 53 µM (inactive); with SF-268, > 100 µM (inactive). Further, the GI50 in the assay on MDA-N is 50.8 µM (inactive); in the assay on COLO 205, 45.5 µM (inactive); in the assay on SN12C, > 100 µM (inactive); in the assay with Malme-3M, > 100 µM (inactive); in the assay on SF-295 it was 78.5 µM (inactive).

As to `CC(C)(C)OC(=O)NCCC(N)=S`, the GI50 with A549, in the assay with NCI-H460, in the assay with SF-539, in the assay on EKVX, with SW-620 and with TK-10 was > 100 µM (inactive) throughout. Besides, the GI50 in the assay on SK-OV-3, in the assay with MOLT-4, in the assay on SNB-75, in the assay with UACC-62, in the assay on SF-268 and in the assay with RPMI-8226 was > 100 µM (inactive) in each case. Also, the GI50 in the assay with MDA-N, in the assay with COLO 205, in the assay on SN12C, with Malme-3M and in the assay with SF-295 was > 100 µM (inactive) each time.

`CCC1OC2(C)CC(C#N)(C#N)C1(C#N)C(=N)O2` (centres undefined): the GI50 with A549, with SF-539, with LOX IMVI, with EKVX, in the assay on SW-620 and with TK-10 was > 100 µM (inactive) in each case. The GI50 with SK-OV-3, in the assay on MOLT-4, with SNB-75, with UACC-62, in the assay with SF-268 and with MDA-N was > 100 µM (inactive) throughout. In addition, the GI50 in the assay with COLO 205, in the assay with SN12C, in the assay with Malme-3M and in the assay with SF-295 was > 100 µM (inactive) each time.
